Test results from ChEMBL document CHEMBL1641539 (Bioorg Med Chem Lett, 2011).
pIC50: −log10 of the molar value.

What was measured:
[1] = biological target: Mitogen-activated protein kinase 9 (Homo sapiens, UniProt P45984); assay: Inhibition of recombinant JNK2 after 60 mins by TR-FRET assay
[2] = biological target: Mitogen-activated protein kinase 10 (Homo sapiens, UniProt P53779); assay: Inhibition of recombinant JNK3 after 60 mins by TR-FRET assay
[3] = biological target: Mitogen-activated protein kinase 1 (Homo sapiens, UniProt P28482); assay: Inhibition of recombinant ERK2 after 60 mins by TR-FRET assay
[4] = biological target: Mitogen-activated protein kinase 14 (Homo sapiens, UniProt Q16539); assay: Inhibition of recombinant p38alpha after 60 mins by TR-FRET assay
[5] = biological target: Mitogen-activated protein kinase 8 (Homo sapiens, UniProt P45983); assay: Inhibition of recombinant JNK1 after 60 mins by TR-FRET assay
[6] = Oxidative metabolic stability in human liver microsomes assessed as compound remaining at 2 uM after 30 mins; type: ADME, Microsome; details: read-out: Stability
[7] = Efflux ratio, ratio of permeability from apical to basolateral in MDCK2 cells over expressing MDR1 in presence of P-gp inhibitor to permeability from apical to basolateral in MDCK2 cells over expressing MDR1 in absence of P-gp inhibitor at 5 uM after 120 mins; type: ADME, cell-based, Canis lupus familiaris; details: dog, mdck-ii, 2 h
[8] = Oxidative metabolic stability in mouse liver microsomes assessed as compound remaining at 2 uM after 30 mins; type: ADME, Microsome; details: read-out: Stability
[9] = Apparent permeability of the compound from apical to basolateral direction in MDCK2 cells at 5 uM after 120 mins; type: ADME, cell-based, Canis lupus familiaris, MDCK-II; details: dog, MDCK

Sequence of Mitogen-activated protein kinase 1 (P28482 whole entry): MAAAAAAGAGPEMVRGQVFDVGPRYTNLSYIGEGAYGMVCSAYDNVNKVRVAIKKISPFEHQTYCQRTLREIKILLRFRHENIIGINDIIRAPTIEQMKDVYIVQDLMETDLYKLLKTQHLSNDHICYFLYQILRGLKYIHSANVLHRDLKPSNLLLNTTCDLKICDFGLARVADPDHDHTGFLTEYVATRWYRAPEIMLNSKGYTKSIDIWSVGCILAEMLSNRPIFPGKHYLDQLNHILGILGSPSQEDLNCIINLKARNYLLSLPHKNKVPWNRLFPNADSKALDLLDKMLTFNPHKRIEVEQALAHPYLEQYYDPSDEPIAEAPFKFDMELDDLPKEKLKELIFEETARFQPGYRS
Sequence of Mitogen-activated protein kinase 9 (P45984 whole entry): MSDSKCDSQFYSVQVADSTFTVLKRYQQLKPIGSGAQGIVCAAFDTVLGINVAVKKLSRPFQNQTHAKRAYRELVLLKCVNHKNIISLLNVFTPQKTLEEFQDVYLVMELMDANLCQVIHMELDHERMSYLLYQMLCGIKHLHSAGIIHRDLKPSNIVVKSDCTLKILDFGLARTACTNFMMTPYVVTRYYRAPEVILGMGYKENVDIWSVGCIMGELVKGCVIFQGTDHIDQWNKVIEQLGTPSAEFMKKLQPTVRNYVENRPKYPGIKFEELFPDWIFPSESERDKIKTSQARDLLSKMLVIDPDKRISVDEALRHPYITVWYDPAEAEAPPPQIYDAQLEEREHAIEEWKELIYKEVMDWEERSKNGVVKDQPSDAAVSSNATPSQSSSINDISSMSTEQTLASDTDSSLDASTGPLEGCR
Sequence of Mitogen-activated protein kinase 8 (P45983 whole entry): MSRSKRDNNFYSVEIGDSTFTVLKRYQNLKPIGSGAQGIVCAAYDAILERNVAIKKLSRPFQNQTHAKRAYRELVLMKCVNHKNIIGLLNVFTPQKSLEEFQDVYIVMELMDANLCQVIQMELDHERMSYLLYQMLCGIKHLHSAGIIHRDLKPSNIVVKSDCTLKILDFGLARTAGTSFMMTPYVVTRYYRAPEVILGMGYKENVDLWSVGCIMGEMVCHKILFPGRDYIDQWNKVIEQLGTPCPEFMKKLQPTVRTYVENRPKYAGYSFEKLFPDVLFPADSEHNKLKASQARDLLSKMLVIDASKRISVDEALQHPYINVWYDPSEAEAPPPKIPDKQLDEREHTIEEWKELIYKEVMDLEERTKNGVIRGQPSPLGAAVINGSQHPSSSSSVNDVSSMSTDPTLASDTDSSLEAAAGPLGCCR
Sequence of Mitogen-activated protein kinase 10 (P53779 whole entry): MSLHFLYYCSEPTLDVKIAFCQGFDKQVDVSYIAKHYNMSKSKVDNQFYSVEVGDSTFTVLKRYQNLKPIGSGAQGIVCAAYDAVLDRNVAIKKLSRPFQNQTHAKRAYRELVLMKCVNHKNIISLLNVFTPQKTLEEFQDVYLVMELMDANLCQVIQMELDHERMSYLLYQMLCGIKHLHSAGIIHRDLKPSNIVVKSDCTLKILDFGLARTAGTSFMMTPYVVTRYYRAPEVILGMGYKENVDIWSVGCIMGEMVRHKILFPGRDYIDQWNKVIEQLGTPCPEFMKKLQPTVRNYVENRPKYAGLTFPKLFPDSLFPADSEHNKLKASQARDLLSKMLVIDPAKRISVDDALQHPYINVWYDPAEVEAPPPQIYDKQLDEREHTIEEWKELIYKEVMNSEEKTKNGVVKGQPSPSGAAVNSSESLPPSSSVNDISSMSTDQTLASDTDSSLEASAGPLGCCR
Sequence of Mitogen-activated protein kinase 14 (Q16539 whole entry): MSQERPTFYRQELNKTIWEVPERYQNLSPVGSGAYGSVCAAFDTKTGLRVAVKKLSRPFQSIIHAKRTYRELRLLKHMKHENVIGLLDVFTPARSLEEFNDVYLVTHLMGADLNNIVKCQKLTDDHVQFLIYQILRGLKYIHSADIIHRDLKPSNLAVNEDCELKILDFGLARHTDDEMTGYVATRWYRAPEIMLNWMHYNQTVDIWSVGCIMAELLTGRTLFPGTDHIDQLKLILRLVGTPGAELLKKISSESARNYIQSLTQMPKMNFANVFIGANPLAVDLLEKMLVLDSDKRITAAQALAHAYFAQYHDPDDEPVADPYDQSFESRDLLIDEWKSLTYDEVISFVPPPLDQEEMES

pIC50 [1]	pIC50 [2]	pIC50 [3]	pIC50 [4]	pIC50 [5]	remaining at 0.5 h, 2 µM [6] [%]	Ratio [7]	remaining at 0.5 h, 2 µM [8] [%]	Papp A→B at 2 h, 5 µM [9] [×10⁻⁶ cm/s]	SMILES
6.36	6.92	< 4.30	< 4.30	5.34					O=C(Nc1cc(-c2n[nH]c(=O)n2-c2ccc3ccccc3c2)ccn1)C1CC1
7.21	7.66	< 4.30	< 4.30	6.38					O=c1n(CC2CCOCC2)nc(-c2ccnc(NC3CCCCC3)c2)n1-c1ccc2ccccc2c1
6.49	7.04	< 4.30	< 4.30	5.42	27	1.6	1.6	21.8	O=c1n(C2CCOC2)nc(-c2ccnc(NC3CCOCC3)c2)n1-c1ccc2ccccc2c1 (stereo not given)
6.19	6.68	< 4.30	< 4.30	< 4.30					O=c1[nH]nc(-c2ccnc(Nc3nccs3)c2)n1-c1ccc2ccccc2c1
6.28	6.80	< 5.30	< 4.30	5.35					O=c1n(C2CCNCC2)nc(-c2ccnc(NC3CCOCC3)c2)n1-c1ccc2ccccc2c1
5.82	6.39	< 4.30	< 4.30	5.14					CC(=O)Nc1cc(-c2n[nH]c(=O)n2-c2ccc3ccccc3c2)ccn1
6.66	7.15	< 4.30	< 4.30	5.74					O=c1[nH]nc(-c2ccnc(NC3CCC3)c2)n1-c1ccc2ccccc2c1
4.49	4.80	< 4.30	< 4.30	< 4.30					O=c1[nH]nc(-c2ccncc2)n1-c1ccc2ccccc2c1
6.46	6.89	< 4.30	< 4.30	< 4.30					O=c1[nH]nc(-c2ccnc(NC3CCCC3)c2)n1-c1ccc2ccccc2c1
6.42	7.27	< 4.30	< 4.30	< 6.30					O=c1[nH]nc(-c2ccnc(NC3CCOCC3)c2)n1-c1ccc2cccc(F)c2c1
6.24	7.03	< 4.30	< 4.30	5.59					Nc1cccc2ccc(-n3c(-c4ccnc(NC5CCOCC5)c4)n[nH]c3=O)cc12
7.24	7.62	< 5.30	< 4.30	6.44					COC(=O)N1CCC(n2nc(-c3ccnc(NC4CCOCC4)c3)n(-c3ccc4ccccc4c3)c2=O)CC1
6.77	7.44			6.05					O=c1n(C2CCN(CC(F)(F)F)CC2)nc(-c2ccnc(NC3CCOCC3)c2)n1-c1ccc2ccccc2c1
< 5.30	5.41	< 5.30	< 5.30	< 5.30					C[C@H](Nc1cc(-c2n[nH]c(=O)n2-c2ccc3ccccc3c2)ccn1)c1ccccc1
5.28	6.02	< 4.30	< 4.30	5.77					Nc1ccc2cc(-n3c(-c4ccnc(NC5CCOCC5)c4)n[nH]c3=O)ccc2c1
6.82	7.00	< 4.30	< 4.30	5.85	59	1.5	1.5	5.1	O=c1n(-c2ccccn2)nc(-c2ccnc(NC3CCOCC3)c2)n1-c1ccc2ccccc2c1
6.33	7.21	< 4.30	< 4.30	5.24					O=c1[nH]nc(-c2ccnc(Nc3ccccc3)c2)n1-c1ccc2ccccc2c1
6.72	7.15	< 4.30	< 4.30	6.13	88		100	7.3	O=c1[nH]nc(-c2ccnc(NC3CCOCC3)c2)n1-c1ccc2cc(F)ccc2c1
6.82	7.85			6.96					O=c1[nH]nc(-c2ccnc(NC3CCOCC3)c2)n1-c1ccc2cccc(Cl)c2c1
6.11	6.37	< 4.30	< 4.30	5.38					O=c1[nH]nc(-c2ccnc(NC3CCOCC3)c2)n1-c1ccc2cc(Br)ccc2c1
6.41	6.89	< 4.30	< 4.30	5.41					O=c1[nH]nc(-c2ccnc(NC3CC3)c2)n1-c1ccc2ccccc2c1
5.36	6.23	< 4.30	< 4.30	< 4.30					O=C(Nc1cc(-c2n[nH]c(=O)n2-c2ccc3ccccc3c2)ccn1)c1ccccc1
5.70	6.55			< 5.30					CCN1CCC(n2nc(-c3ccnc(NC4CCOCC4)c3)n(-c3ccc4ccccc4c3)c2=O)CC1
6.02	6.60	4.85	< 4.30	5.48					O=c1[nH]nc(-c2ccnc(Nc3cccnc3)c2)n1-c1ccc2ccccc2c1
6.96	7.40	< 4.30	< 4.30	5.66					O=c1[nH]nc(-c2ccnc(Nc3ccccn3)c2)n1-c1ccc2ccccc2c1
